Data published in US7989422B2, “Antibacterial agents” (Alchemia Limited, priority 2005, dated 2011).

How the values were obtained:
Type in all cases: cell-based
[1] = test system: Staphylococcus aureus ATCC 25923; test: MIC against S. aureus, microbroth dilution in MH broth, without or with 5% horse serum; settings: MIC class; S. aureus ATCC 25923
Procedure: (§1) Testing was conducted to determine the in vitro antimicrobial activity of a series of compounds synthesised by Alchemia Pty Ltd. The antimicrobial activity of each compound was determined at a single concentration (128 μg/mL) in Mueller Hinton (MH) broth against the ATCC type strain of Staphylococcus aureus. […] Compounds showing activity at concentrations up to 32-64 μg/mL in the presence/absence of serum were then tested for MIC activity against a standard set of 5 microorganisms comprising of ATCC type strains of MRSA, Enterococcus faecalis, Enterococcus faecium, VRE and Escherichia coli. CLSI (formerly NCCLS) microbroth dilution technique was used.
(§2) Each compound is initially dissolved in 100 μL of DMSO. Each solution is then diluted further in 0.9 mL of sterile MH broth to give a total volume of 1 mL (1000 μg/mL) This stock solution is then further diluted in MH broth to give a test solution with final concentration of 128 μg/mL using the following formula: 0.5 ml stock in 3.4 ml MH broth
(§3) Each test organism was subcultured from the −70° C. deep freezer onto horse blood agar. The plates were streaked to obtain isolated colonies and incubated at 35° C. in non-CO2 incubator for 24 hours. A second subculture was carried out onto horse blood agar. For each test organism, 1-2 colonies were selected from an 18-24 hour culture and inoculated into 2 ml sterile MH broth. The turbidity was adjusted to 0.5 McFarland standard.
(§4) A 1:10 dilution in MH broth (200 μL in 2 ml MH) of the 0.5 McFarland control was prepared. 5 μL of this diluted solution was used to inoculate the trays.
100 μL of sterile MH broth was added in columns 2-12. 200 μL of test solution was added in column 1. 100 μL was transferred in column 2 giving a ½ dilution. 100 μL from column 2 was then transferred to column 3 (¼ dilution). This dilution was carried on until column 12. A second tray containing the same test solution was inoculated in a similar manner using sterile MH broth with 5% heat inactivated horse serum. 5 μL of organism solution was then added to each well. The plates were then sealed and incubated at 35° C. in a non-CO2 incubator for 18-24 hours. The plates were examined for growth after the incubation time.
(§5) If the test organism is sensitive to the compound in the broth the growth will be inhibited. Similarly, if the organism grows on the antibiotic containing medium then it is resistant to this particular antibiotic.

[2] = test system: Enterococcus faecalis ATCC 29212; test: MIC against E. faecalis, microbroth dilution; settings: MIC class
Procedure: as §1, §2, §3, §4
(§6) The trays were prepared in a similar way as mentioned above and incubated at 35° C. in a non-CO2 incubator for 18-24 hours. The plates were examined for growth after the incubation time.
(§7) After 18-24 hour incubation 5 μL from each well was then inoculated onto horse blood agar and incubated for 18-24 hours at 35° C. in a non-CO2 incubator.
as §5

E. Faecium 51299 VanB = test: MIC against vancomycin-resistant enterococcus 51299 (VanB), microbroth dilution; settings: MIC class; ATCC 51299 VanB
Procedure: as §1, §2, §3, §4, §6, §7, §5

[3] = test system: Staphylococcus aureus (MRSA) ATCC 33591; test: MIC against MRSA, microbroth dilution; settings: MIC class
Procedure: as §1, §2, §3, §4, §6, §7, §5

[4] = test system: Enterococcus faecium ATCC 35667; test: MIC against E. faecium, microbroth dilution; settings: MIC class
Procedure: as §1, §2, §3, §4, §6, §7, §5

Nc1ccccc1OC1C(NC(=O)Nc2ccc(Cl)c(C(F)(F)F)c2)COC(CO)C1NC(=O)C(N)Cc1ccc(-c2ccccc2)cc1 (single isomer, unassigned) [Compound 70]
S. Aureus 25923 activity [1]: + (“+”: MIC (μg/mL): 64 ≧ MIC > 16) | E. Fecalis 29212 activity [2]: + (“+”: MIC (μg/mL): 64 ≧ MIC > 16) | E. Faecium 51299 VanB activity (E. Faecium 51299 VanB): − (“−”: MIC (μg/mL): MIC > 64) | S. Aureus 33591 MRSA activity [3]: ++ (“++”: MIC (μg/mL): MIC ≦ 16) | E. Faecium 35667 activity [4]: + (“+”: MIC (μg/mL): 64 ≧ MIC > 16)

Nc1ccccc1OC1C(NC(=O)Nc2ccc(Cl)c(C(F)(F)F)c2)COC(CO)C1NC(=O)C(N)Cc1ccc(-c2ccccc2)cc1 (single isomer, unassigned) [Compound 71]
S. Aureus 25923 activity [1]: ++ (“++”: MIC (μg/mL): MIC ≦ 16) | E. Fecalis 29212 activity [2]: + (“+”: MIC (μg/mL): 64 ≧ MIC > 16) | E. Faecium 51299 VanB activity (E. Faecium 51299 VanB): + (“+”: MIC (μg/mL): 64 ≧ MIC > 16) | S. Aureus 33591 MRSA activity [3]: ++ (“++”: MIC (μg/mL): MIC ≦ 16) | E. Faecium 35667 activity [4]: ++ (“++”: MIC (μg/mL): MIC ≦ 16)

O=C(NC1C(CO)OCC(NS(=O)(=O)c2ccc(Cl)c(C(F)(F)F)c2)C1O)c1ccc(-c2ccc(Cl)cc2)cc1 (stereo not drawn) [Compound 12]
S. Aureus 25923 activity [1]: + (“+”: MIC (μg/mL): 64 ≧ MIC > 16)

CCCCCCCCCCNC1C(CO)OCC(NC(=O)Nc2ccc(Cl)c(C(F)(F)F)c2)C1O (stereo not drawn) [Compound 50]
S. Aureus 25923 activity [1]: + (“+”: MIC (μg/mL): 64 ≧ MIC > 16) | E. Fecalis 29212 activity [2]: + (“+”: MIC (μg/mL): 64 ≧ MIC > 16) | E. Faecium 51299 VanB activity (E. Faecium 51299 VanB): − (“−”: MIC (μg/mL): MIC > 64) | S. Aureus 33591 MRSA activity [3]: + (“+”: MIC (μg/mL): 64 ≧ MIC > 16) | E. Faecium 35667 activity [4]: + (“+”: MIC (μg/mL): 64 ≧ MIC > 16)

Nc1ccccc1OC1C(NC(=O)Nc2ccc(Cl)c(C(F)(F)F)c2)COC(CO)C1NS(=O)(=O)c1ccc(-c2ccccc2)cc1 (stereo not drawn) [Compound 62]
S. Aureus 25923 activity [1]: + (“+”: MIC (μg/mL): 64 ≧ MIC > 16) | E. Fecalis 29212 activity [2]: − (“−”: MIC (μg/mL): MIC > 64) | E. Faecium 51299 VanB activity (E. Faecium 51299 VanB): − (“−”: MIC (μg/mL): MIC > 64) | S. Aureus 33591 MRSA activity [3]: ++ (“++”: MIC (μg/mL): MIC ≦ 16) | E. Faecium 35667 activity [4]: − (“−”: MIC (μg/mL): MIC > 64)

Nc1ccccc1OC1C(NC(=O)Nc2ccc(Cl)c(C(F)(F)F)c2)COC(CO)C1NC(=O)c1ccc(-c2ccccc2)cc1 (stereo not drawn) [Compound 69]
S. Aureus 25923 activity [1]: + (“+”: MIC (μg/mL): 64 ≧ MIC > 16) | E. Fecalis 29212 activity [2]: − (“−”: MIC (μg/mL): MIC > 64) | E. Faecium 51299 VanB activity (E. Faecium 51299 VanB): − (“−”: MIC (μg/mL): MIC > 64) | S. Aureus 33591 MRSA activity [3]: − (“−”: MIC (μg/mL): MIC > 64) | E. Faecium 35667 activity [4]: − (“−”: MIC (μg/mL): MIC > 64)

Nc1ccccc1OC1C(NC(=O)Nc2ccc(Cl)c(C(F)(F)F)c2)COC(CO)C1NC(=O)CC(N)c1ccc(-c2ccccc2)cc1 (stereo not drawn) [Compound 72]
S. Aureus 25923 activity [1]: ++ (“++”: MIC (μg/mL): MIC ≦ 16)

O=C(Nc1ccc(Cl)c(C(F)(F)F)c1)NC1COC(CO)C(n2c(NCc3cccc(Oc4ccccc4)c3)nc3cc(C(F)(F)F)cc(Cl)c32)C1O (stereo not drawn) [Compound 258]
S. Aureus 25923 activity [1]: ++ (“++”: MIC (μg/mL): MIC ≦ 16)

O=C(Nc1ccc(Cl)c(C(F)(F)F)c1)NC1COC(CO)C(n2c(NCc3ccc(-c4ccccc4)cc3)nc3cc(C(F)(F)F)cc(Cl)c32)C1O (stereo not drawn) [Compound 259]
S. Aureus 25923 activity [1]: ++ (“++”: MIC (μg/mL): MIC ≦ 16)

O=C(Nc1ccc(Cl)c(C(F)(F)F)c1)NC1COC(CO)C(n2c(NCc3ccc4ccccc4c3)nc3cc(C(F)(F)F)cc(Cl)c32)C1O (stereo not drawn) [Compound 261]
S. Aureus 25923 activity [1]: ++ (“++”: MIC (μg/mL): MIC ≦ 16)

O=S(=O)(NC1COC(CO)C(n2c(Nc3ccc(Cl)cc3)nc3cc(C(F)(F)F)ccc32)C1O)c1ccc(C(F)(F)F)cc1 (stereo not drawn) [Compound 262]
S. Aureus 25923 activity [1]: + (“+”: MIC (μg/mL): 64 ≧ MIC > 16)

O=S(=O)(NC1COC(CO)C(n2c(Nc3ccc(C(F)(F)F)cc3)nc3cc(C(F)(F)F)ccc32)C1O)c1ccc(C(F)(F)F)cc1 (stereo not drawn) [Compound 263]
S. Aureus 25923 activity [1]: ++ (“++”: MIC (μg/mL): MIC ≦ 16)

O=S(=O)(NC1COC(CO)C(n2c(Nc3ccc(-c4ccccc4)cc3)nc3cc(C(F)(F)F)ccc32)C1O)c1ccc(C(F)(F)F)cc1 (stereo not drawn) [Compound 264]
S. Aureus 25923 activity [1]: ++ (“++”: MIC (μg/mL): MIC ≦ 16)

O=S(=O)(NC1COC(CO)C(n2c(NCc3ccccc3)nc3cc(C(F)(F)F)ccc32)C1O)c1ccc(C(F)(F)F)cc1 (stereo not drawn) [Compound 265]
S. Aureus 25923 activity [1]: + (“+”: MIC (μg/mL): 64 ≧ MIC > 16)

O=S(=O)(NC1COC(CO)C(n2c(NCc3ccc(Cl)cc3)nc3cc(C(F)(F)F)ccc32)C1O)c1ccc(C(F)(F)F)cc1 (stereo not drawn) [Compound 266]
S. Aureus 25923 activity [1]: ++ (“++”: MIC (μg/mL): MIC ≦ 16)

CC(C)(C)c1ccc(CNc2nc3cc(C(F)(F)F)ccc3n2C2C(CO)OCC(NS(=O)(=O)c3ccc(C(F)(F)F)cc3)C2O)cc1 (stereo not drawn) [Compound 267]
S. Aureus 25923 activity [1]: ++ (“++”: MIC (μg/mL): MIC ≦ 16)

O=S(=O)(NC1COC(CO)C(n2c(NCc3cccc(Oc4ccccc4)c3)nc3cc(C(F)(F)F)ccc32)C1O)c1ccc(C(F)(F)F)cc1 (stereo not drawn) [Compound 268]
S. Aureus 25923 activity [1]: ++ (“++”: MIC (μg/mL): MIC ≦ 16)

O=S(=O)(NC1COC(CO)C(n2c(NCc3ccc(-c4ccccc4)cc3)nc3cc(C(F)(F)F)ccc32)C1O)c1ccc(C(F)(F)F)cc1 (stereo not drawn) [Compound 269]
S. Aureus 25923 activity [1]: ++ (“++”: MIC (μg/mL): MIC ≦ 16)

O=S(=O)(NC1COC(CO)C(n2c(NCc3ccc4ccccc4c3)nc3cc(C(F)(F)F)ccc32)C1O)c1ccc(C(F)(F)F)cc1 (stereo not drawn) [Compound 270]
S. Aureus 25923 activity [1]: ++ (“++”: MIC (μg/mL): MIC ≦ 16)

O=S(=O)(NC1COC(CO)C(n2c(Nc3ccc(Cl)cc3)nc3cc(C(F)(F)F)cc(Cl)c32)C1O)c1ccc(C(F)(F)F)cc1 (stereo not drawn) [Compound 271]
S. Aureus 25923 activity [1]: ++ (“++”: MIC (μg/mL): MIC ≦ 16)

O=S(=O)(NC1COC(CO)C(n2c(Nc3ccc(C(F)(F)F)cc3)nc3cc(C(F)(F)F)cc(Cl)c32)C1O)c1ccc(C(F)(F)F)cc1 (stereo not drawn) [Compound 272]
S. Aureus 25923 activity [1]: ++ (“++”: MIC (μg/mL): MIC ≦ 16)

O=S(=O)(NC1COC(CO)C(n2c(Nc3ccc(-c4ccccc4)cc3)nc3cc(C(F)(F)F)cc(Cl)c32)C1O)c1ccc(C(F)(F)F)cc1 (stereo not drawn) [Compound 273]
S. Aureus 25923 activity [1]: ++ (“++”: MIC (μg/mL): MIC ≦ 16)

O=S(=O)(NC1COC(CO)C(n2c(NCc3ccccc3)nc3cc(C(F)(F)F)cc(Cl)c32)C1O)c1ccc(C(F)(F)F)cc1 (stereo not drawn) [Compound 274]
S. Aureus 25923 activity [1]: ++ (“++”: MIC (μg/mL): MIC ≦ 16)

O=S(=O)(NC1COC(CO)C(n2c(NCc3ccc(Cl)cc3)nc3cc(C(F)(F)F)cc(Cl)c32)C1O)c1ccc(C(F)(F)F)cc1 (stereo not drawn) [Compound 275]
S. Aureus 25923 activity [1]: ++ (“++”: MIC (μg/mL): MIC ≦ 16)

CC(C)(C)c1ccc(CNc2nc3cc(C(F)(F)F)cc(Cl)c3n2C2C(CO)OCC(NS(=O)(=O)c3ccc(C(F)(F)F)cc3)C2O)cc1 (stereo not drawn) [Compound 276]
S. Aureus 25923 activity [1]: + (“+”: MIC (μg/mL): 64 ≧ MIC > 16)

O=S(=O)(NC1COC(CO)C(n2c(NCc3cccc(Oc4ccccc4)c3)nc3cc(C(F)(F)F)cc(Cl)c32)C1O)c1ccc(C(F)(F)F)cc1 (stereo not drawn) [Compound 277]
S. Aureus 25923 activity [1]: + (“+”: MIC (μg/mL): 64 ≧ MIC > 16)

O=S(=O)(NC1COC(CO)C(n2c(NCc3ccc(-c4ccccc4)cc3)nc3cc(C(F)(F)F)cc(Cl)c32)C1O)c1ccc(C(F)(F)F)cc1 (stereo not drawn) [Compound 278]
S. Aureus 25923 activity [1]: ++ (“++”: MIC (μg/mL): MIC ≦ 16)

O=S(=O)(NC1COC(CO)C(n2c(NCc3ccc4ccccc4c3)nc3cc(C(F)(F)F)cc(Cl)c32)C1O)c1ccc(C(F)(F)F)cc1 (stereo not drawn) [Compound 279]
S. Aureus 25923 activity [1]: ++ (“++”: MIC (μg/mL): MIC ≦ 16)
